Where two headings read alike, the source gives them in different places.
Legend:
USP30 = USP30 (Homo sapiens (Human), UniProt Q70CQ3); test: Dundee MALDI-TOF mass spectrometry assay (IC50); assay type: biochemical; settings: USP30 25 ng/μl, K48-linked diubiquitin 5.6 μM, avg, read-out: Dundee IC50 μM (avg in vitro MS assay)
Experimental: Compounds were tested in a MALDI-TOF assay based on the paper by Ritorto et al. (Ritorto et al. Screening of DUB activity and specificity by MALDI-TOF mass spectrometry. Nat. […] USP30 (25 ng/μl) tested against K48-linked diubiquitin (5.6 μM). USP30 was diluted in a buffer containing 40 mM Tris, 0.01% BSA, 1 mM DTT and K48 in 40 mM Tris, 0.01% BSA. The compounds were pre-incubated with the USP30 for 5 mins at room temp before the K48 dimer addition. The assay mixture was then incubated for 45 mins at room temp. The assay was stopped by the addition of TFA to a final concentration of 2% (v/v). […] Then 250 nl of these solutions were spotted onto an MTP AnchorChip 1,536 TF and this is analysed on the Bruker rapifleX MALDI-TOF.

[1] = molecular target: recombinant USP30 (amino acids 57-517 of the human sequence) (Homo sapiens (Human), UniProt Q70CQ3); test: In vitro USP30 biochemical assay (Ubiquitin-Rhodamine)
Chain of recombinant USP30 (amino acids 57-517 of the human sequence) (Q70CQ3 57-517): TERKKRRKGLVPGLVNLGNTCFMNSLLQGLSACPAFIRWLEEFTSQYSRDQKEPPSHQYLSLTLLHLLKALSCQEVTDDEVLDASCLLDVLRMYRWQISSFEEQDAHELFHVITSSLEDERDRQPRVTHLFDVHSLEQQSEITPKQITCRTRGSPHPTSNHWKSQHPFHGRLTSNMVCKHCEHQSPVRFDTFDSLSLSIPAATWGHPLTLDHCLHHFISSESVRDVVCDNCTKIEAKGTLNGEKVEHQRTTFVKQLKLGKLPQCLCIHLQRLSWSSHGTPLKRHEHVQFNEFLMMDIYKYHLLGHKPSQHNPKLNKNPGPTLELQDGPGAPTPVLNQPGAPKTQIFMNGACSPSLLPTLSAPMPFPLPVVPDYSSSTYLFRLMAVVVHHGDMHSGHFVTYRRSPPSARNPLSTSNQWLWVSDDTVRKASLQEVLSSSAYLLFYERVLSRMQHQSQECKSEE
Experimental: In vitro biochemical assay to establish the potency of compounds for USP30 inhibition: a 384-well plate assay using a fluorophore tagged substrate of USP30 was used for in vitro screening of compounds. Each compound was tested at 10 different concentrations (0.5 to 10,000 nM) in duplicate wells. Compounds were pre-incubated at 25° C. for 30 min in an assay buffer consisting of 20 mM Tris/HCl, pH8.0, 1 mM GSH, 0.01% Triton X-100, 0.03% BGG and 1.5 nM recombinant USP30 (amino acids 57-517 of the human sequence with a C-terminal 6-His tag). Following the pre-incubation, Ubiquitin-Rhodamine substrate dissolved in the assay buffer was added at the final concentration of 25 nM to each well and plates were incubated at 25° C. for an additional 75 minutes. The reaction was stopped by adding 10 mM citric acid and fluorescence was read using excitation wavelength 485 nm, emission of 535 nm. Data were analyzed using Graph Pad Prism software with a four-parameter (floating slope) fit to log concentration data to determine IC50s.

[2] = USP30 IC50 μM (avg), Ubiquitin-Rhodamine substrate 25 nM, 1.5 nM recombinant USP30
[3] = read-out: USP30 IC50 μM (avg), Ubiquitin-Rhodamine substrate 25 nM, 1.5 nM recombinant USP30

Chain of USP30 (Q70CQ3 whole entry): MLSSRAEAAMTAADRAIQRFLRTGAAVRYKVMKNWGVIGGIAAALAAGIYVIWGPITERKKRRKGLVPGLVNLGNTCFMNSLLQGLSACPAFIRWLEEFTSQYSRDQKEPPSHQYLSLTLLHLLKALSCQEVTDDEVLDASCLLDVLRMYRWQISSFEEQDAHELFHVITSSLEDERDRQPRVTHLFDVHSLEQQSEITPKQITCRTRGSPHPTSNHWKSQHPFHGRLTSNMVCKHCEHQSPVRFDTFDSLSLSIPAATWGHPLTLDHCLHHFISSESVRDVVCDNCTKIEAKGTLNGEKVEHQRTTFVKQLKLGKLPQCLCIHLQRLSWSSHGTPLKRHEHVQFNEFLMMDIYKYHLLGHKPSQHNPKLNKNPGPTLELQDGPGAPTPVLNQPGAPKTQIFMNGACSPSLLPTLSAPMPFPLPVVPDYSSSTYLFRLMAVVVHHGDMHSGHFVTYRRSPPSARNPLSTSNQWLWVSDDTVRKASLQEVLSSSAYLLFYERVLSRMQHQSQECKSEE

SMILES	IC50 (USP30) [µM]	IC50 [1, 2] [µM]	IC50 [1, 3] [µM]
O=C(N[C@@H](Cc1ccccc1)C(=O)Nc1ccc(S(=O)(=O)NC2CCC2)cc1)c1ccc(F)cc1 [Compound I-7, (S)-N-(1-(4-(N-cyclobutylsulfamoyl)phenylamino)-1-oxo-3-phenylpropan-2-yl)-4-fluorobenzamide]	< 0.05	–	–
O=C(N[C@@H](Cc1ccccc1)C(=O)Nc1ccc(S(=O)(=O)NC2CCCC2)cc1)c1ccc(F)cc1 [Compound I-8, (S)-N-(1-(4-(N-cyclopentylsulfamoyl)phenylamino)-1-oxo-3-phenylpropan-2-yl)-4-fluorobenzamide]	< 0.05	–	–
CC[C@@H](C)NS(=O)(=O)c1ccc(NC(=O)[C@H](Cc2ccccc2)NC(=O)c2ccc(F)cc2)cc1 [Compound I-12, N-((S)-1-((4-(N-((R)-sec-butyl)sulfamoyl)phenyl)amino)-1-oxo-3-phenylpropan-2-yl)-4-fluorobenzamide]	< 0.05	–	–
CC(C)(C)NS(=O)(=O)c1ccc(NC(=O)[C@H](Cc2ccccc2)NC(=O)c2cccc(F)c2)cc1 [Compound I-88, (S)-N-(1-(4-(N-tert-butylsulfamoyl)phenylamino)-1-oxo-3-phenylpropan-2-yl)-3-fluorobenzamide]	< 0.05	0.05 to 1	–
O=C(N[C@@H](Cc1ccccc1)C(=O)Nc1ccc(S(=O)(=O)NCCO)cn1)c1ccc(F)cc1 [Compound I-121, (S)-4-fluoro-N-(1-(5-(N-(2-hydroxyethyl)sulfamoyl)pyridin-2-ylamino)-1-oxo-3-phenylpropan-2-yl)benzamide]	0.05 to 1	0.05 to 1	–
CCNS(=O)(=O)c1ccc(NC(=O)[C@H](Cc2ccccc2)NC(=O)c2ccc(F)cc2)c(F)c1 [Compound I-157, (S)-N-(1-(4-(N-ethylsulfamoyl)-2-fluorophenylamino)-1-oxo-3-phenylpropan-2-yl)-4-fluorobenzamide]	0.05 to 1	0.05 to 1	–
CC(C)(C)NS(=O)(=O)c1ccc(NC(=O)[C@H](Cc2ccccc2)NC(=O)c2ccc(F)cc2)s1 [Compound I-63, (S)-N-(1-(5-(N-tert-butylsulfamoyl)thiophen-2-ylamino)-1-oxo-3-phenylpropan-2-yl)-4-fluorobenzamide]	0.05 to 1	–	–
O=C(NC1(C(=O)Nc2ccc(S(=O)(=O)NC3COC3)cc2)Cc2ccccc2C1)c1ccc(F)cc1 [Compound I-101, 2-(4-fluorobenzamido)-N-(4-(N-oxetan-3-ylsulfamoyl)phenyl)-2,3-dihydro-1H-indene-2-carboxamide]	> 10	–	> 10
CC(C)(C)NS(=O)(=O)c1ccc(NC(=O)[C@H](Cc2ccccc2)NC(=O)c2ccc(F)cn2)cc1 [Compound I-85, (S)-N-(1-(4-(N-tert-butylsulfamoyl)phenylamino)-1-oxo-3-phenylpropan-2-yl)-5-fluoropicolinamide]	0.05 to 1	–	< 0.05
O=C(N[C@@H](Cc1ccccc1)C(=O)Nc1ccc(S(=O)(=O)Nc2ccccc2)cc1)c1ccc(F)cc1 [Compound I-32, (S)-4-fluoro-N-(1-oxo-3-phenyl-1-(4-(N-phenylsulfamoyl)phenylamino)propan-2-yl)benzamide]	0.05 to 1	–	–
CN(C(=O)c1ccc(F)cc1)[C@@H](Cc1ccccc1)C(=O)Nc1ccc(S(=O)(=O)NC2COC2)cc1 [Compound I-70, (S)-4-fluoro-N-methyl-N-(1-(4-(N-oxetan-3-ylsulfamoyl)phenylamino)-1-oxo-3-phenylpropan-2-yl)benzamide]	1 to 10	1 to 10	–
CC(C)(C)NS(=O)(=O)c1ccc(NC(=O)[C@H](Cc2ccccc2)NC(=O)c2ccc(F)cc2)c(F)c1 [Compound I-158, (S)-N-(1-(4-(N-tert-butylsulfamoyl)-2-fluorophenylamino)-1-oxo-3-phenylpropan-2-yl)-4-fluorobenzamide]	< 0.05	–	< 0.05
CC(C)(C)OCCNS(=O)(=O)c1ccc(NC(=O)[C@H](Cc2ccccc2)NC(=O)c2ccc(F)cc2)cc1 [Compound I-135, (S)-N-(1-(4-(N-(2-tert-butoxyethyl)sulfamoyl)phenylamino)-1-oxo-3-phenylpropan-2-yl)-4-fluorobenzamide]	0.05 to 1	1 to 10	–
COCCNS(=O)(=O)c1ccc(NC(=O)[C@H](Cc2ccccc2)NC(=O)c2ccc(F)cc2)cc1 [Compound I-132, (S)-4-fluoro-N-(1-(4-(N-(2-methoxyethyl)sulfamoyl)phenylamino)-1-oxo-3-phenylpropan-2-yl)benzamide]	< 0.05	0.05 to 1	–
CC1(NS(=O)(=O)c2ccc(NC(=O)[C@H](Cc3ccccc3)NC(=O)c3ccc(F)cc3)cc2)COC1 [Compound I-136, (S)-4-fluoro-N-(1-(4-(N-(3-methyloxetan-3-yl)sulfamoyl)phenylamino)-1-oxo-3-phenylpropan-2-yl)benzamide]	< 0.05	–	< 0.05
O=C(N[C@@H](Cc1ccccc1)C(=O)Nc1ccc(S(=O)(=O)NC23CC(C2)C3)cc1)c1ccccn1 [Compound I-76, (S)-N-(1-(4-(N-bicyclo[1.1.1]pentan-1-ylsulfamoyl)phenylamino)-1-oxo-3-phenylpropan-2-yl)picolinamide]	0.05 to 1	1 to 10	–
C[C@@H](NS(=O)(=O)c1ccc(NC(=O)[C@H](Cc2ccccc2)NC(=O)c2ccc(F)cc2)cc1)C1CC1 [Compound I-67, N-((S)-1-(4-(N-((R)-1-cyclopropylethyl)sulfamoyl)phenylamino)-1-oxo-3-phenylpropan-2-yl)-4-fluorobenzamide]	< 0.05	–	–
CC(C)(C)NS(=O)(=O)c1ccc(NC(=O)[C@H](Cc2ccccc2)NC(=O)c2ccc(F)cc2)nc1 [Compound I-61, (S)-N-(1-(5-(N-tert-butylsulfamoyl)pyridin-2-ylamino)-1-oxo-3-phenylpropan-2-yl)-4-fluorobenzamide]	< 0.05	–	–
CC(C)(C)CS(=O)(=O)c1ccc(NC(=O)[C@H](Cc2ccccc2)NC(=O)c2ccc(F)cc2)cc1 [Compound I-2, (S)-4-fluoro-N-(1-(4-(2,2-Dimethyl-propylsulfonyl)phenylamino)-1-oxo-3-phenylpropan-2-yl)benzamide]	0.05 to 1	–	–
O=C(N[C@@H](Cc1ccccc1)C(=O)Nc1ccc(S(=O)(=O)NCC2CC2)cc1)c1ccc(F)cc1 [Compound I-9, (S)-N-(1-(4-(N-(cyclopropylmethyl)sulfamoyl)phenylamino)-1-oxo-3-phenylpropan-2-yl)-4-fluorobenzamide]	< 0.05	–	–
CC(C)(C)NS(=O)(=O)c1ccc(NC(=O)C2Cc3ncccc3N2C(=O)c2ccc(F)cc2)cc1 (stereo not shown) [Compound I-54, N-(4-(N-tert-butylsulfamoyl)phenyl)-1-(4-fluorobenzoyl)-2,3-dihydro-1H-pyrrolo[3,2-b]pyridine-2-carboxamide]	> 1	–	–
CC(C)(C)CS(=N)(=O)c1ccc(NC(=O)[C@H](Cc2ccccc2)NC(=O)c2ccc(F)cc2)cc1 (stereo partly drawn) [Compound I-3, N-((2S)-1-(4-(2,2-dimethylpropylsulfonimidoyl)phenylamino)-1-oxo-3-phenylpropan-2-yl)-4-fluorobenzamide]	> 10	–	–
O=C(N[C@@H](Cc1ccccc1)C(=O)Nc1ccc(S(=O)(=O)NC2CC2)cc1)c1ccc(F)cc1 [Compound I-6, (S)-N-(1-(4-(N-cyclopropylsulfamoyl)phenylamino)-1-oxo-3-phenylpropan-2-yl)-4-fluorobenzamide]	< 0.05	–	–
O=C(N[C@@H](Cc1ccccc1)C(=O)Nc1ccc(S(=O)(=O)NC2CCCCC2)cc1)c1ccc(F)cc1 [Compound I-31, (S)-N-(1-(4-(N-cyclohexylsulfamoyl)phenylamino)-1-oxo-3-phenylpropan-2-yl)-4-fluorobenzamide]	0.05 to 1	–	–
CC(C)(C)NS(=O)(=O)c1ccc(NC(=O)[C@H](Cc2c[nH]c3ccccc23)NC(=O)c2ccc(F)cc2)cc1 [Compound I-1, (S)-N-(1-(4-(N-tert-butylsulfamoyl)phenylamino)-3-(1H-indol-3-yl)-1-oxopropan-2-yl)-4-fluorobenzamide]	0.05 to 1	–	–
CC(C)(C)NS(=O)(=O)c1ccc(NC(=O)[C@H](Cc2ccccc2)NC(=O)c2ccc(F)cc2)cn1 [Compound I-62, (S)-N-(1-(6-(N-tert-butylsulfamoyl)pyridin-3-ylamino)-1-oxo-3-phenylpropan-2-yl)-4-fluorobenzamide]	< 0.05	–	–
CC(C)(C)NS(=O)(=O)c1ccc(NC(=O)[C@H](Cc2ccccc2)N2Cc3ccccc3C2=O)cc1 [Compound I-69, (S)-N-(4-(N-tert-butylsulfamoyl)phenyl)-2-(1-oxoisoindolin-2-yl)-3-phenylpropanamide]	1 to 10	–	–
CCC(C)(C)NS(=O)(=O)c1ccc(NC(=O)[C@H](Cc2ccccc2)NC(=O)c2ccc(F)cc2)cc1 [Compound I-24, (S)-4-fluoro-N-(1-oxo-1-(4-(N-tert-pentylsulfamoyl)phenylamino)-3-phenylpropan-2-yl)benzamide]	< 0.05	–	–
CC(C)(C)NS(=O)(=O)c1ccc(NC(=O)[C@H](Cc2ccccc2)NS(=O)(=O)c2ccc(F)cc2)cc1 [Compound I-165, (S)-N-(4-(N-tert-butylsulfamoyl)phenyl)-2-(4-fluorophenylsulfonamido)-3-phenylpropanamide]	–	–	> 10
